According to the supplement of paper PMC7108870:

Assays:
HEK293sieSTAT3(wt) [1] = assay: drug sensitivity score (DSS), viability CellTiter-Glo (DSS (dimensionless)); higher = more growth inhibition; extreme values may be limits of the assay; details: 72 h; STAT3 variant: wild type
Procedure, shortened: (§1)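 A drug sensitivity score, based on the area of the dose-response curve, was calculated in Breeze after normalising values to negative and positive control wells. It came from HEK293 cells carrying a STAT3-dependent luciferase reporter and overexpressing wild-type or mutant STAT3, plated at 20 μl of 100,000 cells/ml onto compounds acoustically pre-plated at 5 concentrations in 10-fold dilutions in 384-well plates. Following 72 hours at 37°C and 5% CO2, CellTox Green fluorescence (485/520 nm) and then CellTiter-Glo luminescence were read on a PHERAstar FS.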

HEK293sieSTAT3(Y640F) [2] = assay: as above; details: 72 h; STAT3 variant: Y640F (constitutively active)
Procedure, shortened: as §1

HEK293sieSTAT3(wt) [3] = assay: drug sensitivity score (DSS), cytotoxicity CellTox Green (DSS (dimensionless)); higher = more cytotoxic; extreme values may be limits of the assay; details: 72 h; STAT3 variant: wild type
Procedure, shortened: as §1

HEK293sieSTAT3(Y640F) [4] = assay: as above; details: 72 h; STAT3 variant: Y640F (constitutively active)
Procedure, shortened: as §1

Compound	drug sensitivity score (HEK293sieSTAT3(wt) [1])	drug sensitivity score (HEK293sieSTAT3(Y640F) [2])	drug sensitivity score (HEK293sieSTAT3(wt) [3])	drug sensitivity score (HEK293sieSTAT3(Y640F) [4])
COc1ccc(C[C@H](NC(=O)[C@H](C)NC(=O)CN2CCOCC2)C(=O)N[C@@H](Cc2ccccc2)C(=O)C2(C)CO2)cc1 (stereo in doubt) [ONX-0914] (top concentration tested 10000 nM)	21.7	19.9	19.9	18.6
Cc1ccc(C(=O)N(CCCN)[C@@H](c2oc3cc(Cl)ccc3c(=O)c2Cc2ccccc2)C(C)C)cc1 (top concentration tested 100 nM)	12.3	10.7	8.48	0.83
CCn1cc(-c2ccnc3[nH]c(-c4cccc(CN(C)C)c4)cc23)c(-c2ccc(NC(=O)N(C)C)cc2)n1 (top concentration tested 1000 nM)	5.64	4.73	0.19	0
CN1CCC(COc2cnc(-c3cccc(Cn4nc(-c5cccc(C#N)c5)ccc4=O)c3)nc2)CC1 (top concentration tested 1000 nM)	0	0	0	0
CNC(=O)c1ccc(C)c(-n2c(C)cc(OCc3ccc(F)cc3F)c(Br)c2=O)c1 (top concentration tested 1000 nM)	3.62	4.08	0	0
C[C@@H](Oc1ccc2[nH]nc(/C=C/c3cnn(CCO)c3)c2c1)c1c(Cl)cncc1Cl (top concentration tested 1000 nM)	5.39	6.64	0	0
C[C@H]1Oc2cc(cnc2N)-c2c(nn(C)c2C#N)CN(C)C(=O)c2ccc(F)cc21 (top concentration tested 1000 nM)	1.84	5.03	0	0
O=C(NOC[C@H](O)CO)c1ccc(F)c(F)c1Nc1ccc(I)cc1F (top concentration tested 1000 nM)	0	0	0	0
CCOc1ccn(-c2ccc(F)cc2)c(=O)c1C(=O)Nc1ccc(Oc2ccnc(N)c2Cl)c(F)c1 (top concentration tested 2500 nM)	4.83	0.75	0	0
Cc1cccc(CC(=O)N2CCc3c2ccc(-c2cn(C)c4ncnc(N)c24)c3F)n1 (top concentration tested 2500 nM)	0	0	0.89	0
OCCn1cc(-c2cnc3nnn(Cc4ccc5ncccc5c4)c3n2)cn1 (top concentration tested 2500 nM)	0	1.78	0.12	0
CNC(=O)c1ccccc1Nc1nc(Nc2ccc3c(c2OC)CCC[C@H](N2CCN(CCO)CC2)C3)ncc1Cl (top concentration tested 5000 nM)	9.3	7.82	6.35	0
Cc1ncc(Cl)cc1NCc1ccc(C(=O)N[C@@H](CC2CCCC2)C(=O)NC2CC2)s1 (top concentration tested 5000 nM)	0.63	4.24	0	0.4
CC(=O)NCC(=O)N1[C@@H]2CC[C@H]1c1ccc(Nc3ncc(C(F)(F)F)c(NC4CCC4)n3)cc12 (top concentration tested 10000 nM)	16.8	13.2	8.9	1.98
CC(C)(C)C[C@@H]1N[C@@H](C(=O)N[C@H]2CC[C@H](O)CC2)[C@H](c2cccc(Cl)c2F)[C@]12C(=O)Nc1cc(Cl)ccc12 (top concentration tested 10000 nM)	4.33	3.68	2.72	2.22
CC(C)CC(=O)Nc1n[nH]c2c1CN(C(=O)C1CCN(C)CC1)C2(C)C (top concentration tested 10000 nM)	13.4	12.4	19	4.64
CC(C)Oc1ccc(C(=O)N[C@H](CNC(=O)CN(C)C)Cc2ccc(-c3cn4cccc([C@H](C)O)c4n3)cc2)cc1Cl (top concentration tested 10000 nM)	15.3	14.7	11.4	2.45
CCNC(=O)C[C@@H]1N=C(c2ccc(Cl)cc2)c2cc(OC)ccc2-n2c(C)nnc21 (top concentration tested 10000 nM)	4.81	9.51	5.42	0.87
CCn1c(-c2nonc2N)nc2c(C#CC(C)(C)O)ncc(OC[C@H]3CCCNC3)c21 (top concentration tested 10000 nM)	16.9	13.7	1.28	0.19
CCn1c(C(=O)N(C2CC2)C2CC2)cc2c3c(ncn3C)c(Nc3cc(C)n(C)n3)nc21 (top concentration tested 10000 nM)	0.76	0.09	0	0
CN(c1ncccc1CNc1nc(Nc2ccc3c(c2)CC(=O)N3)ncc1C(F)(F)F)S(C)(=O)=O (top concentration tested 10000 nM)	12	8.82	7.18	1.32
CNc1nc(-c2ccc3c(N)n[nH]c3c2)cc(N2C[C@@H](C(=O)NC3CCCCC3)CC[C@H]2C)n1 (top concentration tested 10000 nM)	4.33	1.37	0	0.35
CNc1ncc2cc(-c3cc(NC(=O)NCCC(C)(C)C)c(F)cc3C)c(C)nc2n1 (top concentration tested 10000 nM)	3.99	5.64	0.9	0
COCC(=O)NC/C=C/c1ccc2ncnc(Nc3ccc(Oc4ccc(C)nc4)c(C)c3)c2c1 (top concentration tested 10000 nM)	3.61	1.25	2.66	0

Compound	drug sensitivity score (HEK293sieSTAT3(wt) [1])	drug sensitivity score (HEK293sieSTAT3(Y640F) [2])	drug sensitivity score (HEK293sieSTAT3(wt) [3])	drug sensitivity score (HEK293sieSTAT3(Y640F) [4])
COc1cc2ncnc(Oc3cccc(NC(=O)Nc4cc(C(C)(C)C(F)(F)F)on4)c3)c2cc1OC (top concentration tested 10000 nM)	2.4	1.53	0	0.44
COc1ccc(-c2cc3c(C)nc(N)nc3n([C@H]3CC[C@H](OCCO)CC3)c2=O)cn1 (top concentration tested 10000 nM)	23.3	20.1	2.91	0
COc1ccc(Cn2ccc3ccc(C(=O)NO)cc32)cc1 (top concentration tested 10000 nM)	3.02	2.79	0	0
CS(=O)(=O)N1CCc2c(-c3cnc(N)nc3)nc(N3CCOCC3)nc21 (top concentration tested 10000 nM)	15.5	12	5.98	0
C[C@@H](Oc1cc(-n2cnc3ccc(CN4CCN(C)CC4)cc32)sc1C(N)=O)c1ccccc1C(F)(F)F (top concentration tested 10000 nM)	36.5	37.9	37.4	15.3
C[C@@]1(C(=O)Nc2ccc(F)nc2)CCCN1c1nc(Nc2cc(C3CC3)n[nH]2)c2cccn2n1 (top concentration tested 10000 nM)	15.8	17.4	5.21	0.48
Cc1c(Cn2c(C)nc3c(C(=O)O)cc(N4CCOCC4)cc32)cccc1C(F)(F)F (top concentration tested 10000 nM)	3	0.96	0.07	0
Cc1c(NC(=O)OC[C@@H]2COCCN2)cn2ncnc(Nc3ccc4c(cnn4Cc4cccc(F)c4)c3)c12 (top concentration tested 10000 nM)	6.6	2.59	6.8	0.83
Cc1nc(Nc2n[nH]c3c2CN(C(=O)N[C@H](CN(C)C)c2ccccc2)C3(C)C)c2sccc2n1 (top concentration tested 10000 nM)	32.7	19.3	34	0.9
Cn1cc(-c2ccc3nnc(C(F)(F)c4ccc5ncccc5c4)n3n2)cn1 (top concentration tested 10000 nM)	3.09	0	0	0
Cn1cc(C2=Nc3cc(NC(=O)C(N)C4CCCCC4)cc4c3C2=CNNC4=O)cn1 (centres undefined) (top concentration tested 10000 nM)	15.8	17.5	5.91	2.57
N#Cc1ccc(COC[C@H]2O[C@@H](n3c(NCc4ccc(Cl)c(Cl)c4)nc4c(N)ncnc43)[C@H](O)[C@@H]2O)cc1 (top concentration tested 10000 nM)	3.11	4.87	0.11	0
NC[C@@](O)(c1ccc(Cl)cc1)c1ccc(-c2cn[nH]c2)cc1 (top concentration tested 10000 nM)	6.8	7.85	6.61	6.08
Nc1nccc(-c2c(-c3ccc(F)cc3)ncn2C2CCCCC2)n1 (top concentration tested 10000 nM)	4.08	3.49	0	0
Nc1ncnc2c1c(COc1cccc(Cl)c1)nn2C1CCOCC1 (top concentration tested 10000 nM)	0.14	0	0	0
O=C(NC[C@H](O)CN1CCc2ccccc2C1)c1cc(NC2COC2)ncn1 (top concentration tested 10000 nM)	0	0	0	0
O=C(NOCC1CC1)c1ccc(F)c(F)c1Nc1ccc(I)cc1Cl (top concentration tested 10000 nM)	2.33	1.63	0	0
O=C(Nc1ccc2[nH]nc(-c3ccncc3)c2c1)[C@@H]1CCN(CC(=O)N2CCN(c3ccc(-c4ncccn4)cc3)CC2)C1 (top concentration tested 10000 nM)	1.44	3.37	0	0.69
O=C(O)c1ccc(CN2CCC(CN[C@@H]3C[C@H]3c3ccccc3)CC2)cc1 (top concentration tested 10000 nM)	0	0	0	0
O=C1NC(=O)/C(=C/c2ccc3nccc(-c4ccncc4)c3c2)S1 (top concentration tested 10000 nM)	11.3	15.4	3.49	0
O=c1[nH]c(C2CCCN2)nc2c1oc1ccc(Cl)cc12 (centres undefined) (top concentration tested 10000 nM)	6.39	5.66	0	0
Cc1ccc(C(=O)Nc2ccc(CN3CCN(C)CC3)c(C(F)(F)F)c2)cc1C#Cc1cnc2cccnn12 [Ponatinib] (top concentration tested 1000 nM)	9.83	6.74	–	–
CCC(C)(C)C(=O)O[C@H]1C[C@@H](C)C=C2C=C[C@H](C)[C@H](CC[C@@H]3C[C@@H](O)CC(=O)O3)[C@H]21 [Simvastatin] (top concentration tested 10000 nM)	3.28	0.89	–	–
